Reference: article PMC8946265, “Withanolide-Type Steroids from Physalis nicandroides Inhibit HIV Transcription” (Journal of Natural Products, 2021)
Where two headings read alike, the source gives them in different places.

Tests used:
in vitro = conditions: human
[1] = tested on: X4 recombinant HIV (NL4.3-Ren); assay: microbe, parasite or virus in culture
[2] = tested on: X4 recombinant HIV (NL4.3-Ren); conditions: for SI: selectivity index (CC50/IC50): CC50 MT-2 / IC50 HIV NL4.3-Ren
[3] = tested on: VSV pseudotyped HIV (VSV-HIV)
[4] = tested on: HIV transcription (pNL4.3-Luc); assay: cells; type: cell-based, HIV-1; conditions: for IC50: Human immunodeficiency virus 1, MT2, 48 h, read-out: IC50 viral transcription; for SI HIV transcription/HIV infection (specificity index): IC50 transcription / IC50 HIV infection; for effect on HIV transcription (in words): MT-2 cells transfected with NL4.3-Luc, 0.7 to 100 μM
[5] = tested on: VSV pseudotyped HIV (VSV-HIV); assay: microbe, parasite or virus in culture; conditions: Vesicular stomatitis virus, MT2, 48 h, read-out: IC50 VSV-HIV
[6] = Human immunodeficiency virus 1, MT2, 48 h, read-out: IC50 (CI95%; R^2) anti-HIV activity, MT-2 cells, NL4.3-Ren, 48 h, mean of at least three independent experiments
[7] = Human immunodeficiency virus 1, MT2, read-out: IC50 HIV, MT-2 cells, HIV infection, values repeated from Table 3 (more decimals)

Row | Compound | CC50 (in vitro) [µM] | IC50 [1, 6] [µM] | SI: selectivity index (CC50/IC50) [2] | also measured
1 | C[C@H](Cn1cnc2c(N)ncnc21)OCP(=O)(O)O [TFV, tenofovir, reference compound] | > 100 | 1.7 | – | IC50 [1, 7]: 1.69 µM
2 | CC(=O)O[C@H]1C[C@@](O)([C@H](C)[C@H]2CC(C)=C(C)C(=O)O2)[C@@]2(C)CC[C@H]3[C@@H](C[C@H]4O[C@]45CC=CC(=O)[C@]35C)[C@@]12O [Compound 5, physagulide I] | > 100 | > 100 | – | –
3 | enfuvirtide | – | – | – | IC50 ([2]; read-out: IC50 HIV, MT-2 cells, HIV infection, values repeated from Table 3 (more decimals)): 15 nM; activity as VSV-HIV inhibitor (in words) [3]: not active; IC50 ([3]; VSV pseudotyped (VSV-, 48 h)): > 1000 nM; SI VSV-HIV/HIV (specificity index) ([3]; VSV pseudotyped (VSV-, 48 h)): >66.67
4 | CC(=O)O[C@H]1[C@@H]2O[C@]2([C@H](C)[C@H]2CC(C)=C(C)C(=O)O2)[C@@]2(C)CC[C@H]3[C@@H](C[C@@H](O)[C@@]4(O)CC=CC(=O)[C@]34C)[C@@]12O [Compound 12, physagulin C] | > 100 | 21.1 | >4.7 | –
5 | CC(=O)O[C@H]1C[C@H]([C@H](C)[C@H]2CC(C)=C(C)C(=O)O2)[C@@]2(C)CC[C@H]3[C@@H](C[C@@H](O)[C@@]4(O)CC=CC(=O)[C@]34C)[C@@]12O [Compound 10, physagulin J] | > 100 | 32.7 | >3.1 | –
6 | CC(=O)O[C@H]1C=C([C@H](C)[C@H]2CC(C)=C(C)C(=O)O2)[C@@]2(C)CC[C@H]3[C@@H](C[C@H]4O[C@]45CC=CC(=O)[C@]35C)[C@@]12O [Compound 7, physagulin A] | 16 | < 2 | – | IC50 [4]: 1970 nM; SI HIV transcription/HIV infection (specificity index) [4]: 1.02; effect on HIV transcription (in words) [4]: inhibited HIV transcription; fold more potent (antiviral effect) than 17β-hydroxy-withanolide 5 ([2]; IC50 ratio versus compound 5): > 50 fold; fold more potency (anti-HIV) than dihydroxy compound 8 ([2]; IC50 ratio versus compound 8): 35.7 fold; fold more potency (anti-HIV) than halohydrin 9 ([2]; IC50 ratio versus compound 9): 4.7 fold; SI VSV-HIV/HIV (specificity index) [3]: 1.64; IC50 [1, 7]: 1.94 µM; IC50 [5]: 3200 nM
7 | CC(=O)O[C@H]1C=C([C@H](C)[C@H]2CC(C)=C(C)C(=O)O2)[C@@]2(C)CC[C@H]3[C@@H](C[C@@H](O)[C@]45C=C[C@H](OO4)C(=O)[C@]35C)[C@@]12O [Compound 3, 15α-acetoxy-6β,14β-dihydroxy-1-oxo-2α,5α-dioxy-witha-3,16,24-trien-26,22-olide] | > 100 | 76.1 | >1.3 | –
8 | C=C1C(=O)O[C@@H]([C@@H](C)[C@]2(O)C[C@H](OC(C)=O)[C@]3(O)[C@@H]4C[C@H]5O[C@]56CC=CC(=O)[C@]6(C)[C@H]4CC[C@@]32C)C[C@]1(C)O [Compound 2, 15α-acetoxy-5β,6β-epoxy-14β,17β,24α-trihydroxy-1-oxo-witha-2,25(27)-dien-26,22-olide] | > 100 | 18.7 | >5.3 | –
9 | CC(=O)O[C@H]1[C@@H]2O[C@]2([C@H](C)[C@H]2CC(C)=C(C)C(=O)O2)[C@@]2(C)CC[C@H]3[C@@H](C[C@H]4O[C@]45[C@@H](O)C=CC(=O)[C@]35C)[C@@]12O [Compound 13, physagulin F] | 15.2 | < 2 | 15.5 | IC50 [4]: 1140 nM; SI HIV transcription/HIV infection (specificity index) [4]: 1.13; effect on HIV transcription (in words) [4]: inhibited HIV transcription; SI VSV-HIV/HIV (specificity index) [3]: 2.66; IC50 [1, 7]: 1.01 µM; IC50 [5]: 2670 nM
10 | CC(=O)O[C@H]1C=C([C@H](C)[C@H]2CC(C)=C(C)C(=O)O2)[C@@]2(C)CC[C@H]3[C@@H](C[C@@H](O)[C@@]4(Cl)CC=CC(=O)[C@]34C)[C@]12O [Compound 9, physagulin B] | > 100 | 8.9 | >11.2 | –
11 | CC(=O)O[C@H]1[C@@H]2O[C@]2([C@H](C)[C@H]2CC(C)=C(C)C(=O)O2)[C@@]2(C)CC[C@H]3[C@@H](C[C@@H](O)[C@]45C=C[C@H](OO4)C(=O)[C@]35C)[C@@]12O [Compound 4, 15α-acetoxy-16β,17β-epoxy-6β,14β-dihydroxy-1-oxo-2α,5α-dioxy-witha-3,24-dien-26,22-olide] | > 100 | 72.7 | >1.4 | –
12 | C=C1C(=O)O[C@@H]([C@@H](C)[C@]2(O)C[C@H](OC(C)=O)[C@]3(O)[C@@H]4C[C@H]5O[C@]56CC=CC(=O)[C@]6(C)[C@H]4CC[C@@]32C)C[C@@]1(C)O [Compound 1, 15α-acetoxy-5β,6β-epoxy-14β,17β,24β-trihydroxy-1-oxo-witha-2,25(27)-dien-26,22-olide] | > 100 | 12.4 | >8 | –
13 | CC(=O)O[C@H]1C=C([C@H](C)[C@H]2CC(C)=C(C)C(=O)O2)[C@@]2(C)CC[C@H]3[C@@H](C[C@@H](O)[C@@]4(O)CC=CC(=O)[C@]34C)[C@]12O [Compound 8, withaminimin] | > 100 | 67.9 | >1.5 | –
